In PubChem BioAssay AID588780 (Sanford-Burnham Center for Chemical Genomics, 2011):
Active and inactive are the calls of the source.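 Rule for the calls: active = compounds whose fitted half-maximal concentration in the cell-protection dose series is at or below a set limit; inactive = the rest.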

test system: H9c2 cardiomyocytes, 2-deoxyglucose stress, ATP luminescence, 2 h; assay: H9c2 cell survival under 2-deoxyglucose stress – uHTS hits, dose response (AID 588780)

| Compound | IC50 |
| --- | --- |
| Cn1c(=O)[nH]c(=O)c2c1nc(Br)n2CC(O)COc1ccc(Cl)cc1 (configuration not stated) | 15.2 µM |
| O=C(NCCN1CCN(c2ccccc2F)CC1)c1cccn2c(=O)c3ccccc3nc12 | 11.2 µM |
| COc1ccc(NC(=O)COc2cccc3c2CCNC3=O)cc1 | > 79 µM (inactive) |
| COc1cc2c(C(=O)NCc3ccccn3)cn(CC(C)C)c(=O)c2cc1OC | 54.6 µM (inactive) |
| NC(=O)c1nsc(C(=O)N(c2ccccc2F)C(C(=O)NCc2ccccc2)c2ccc(O)cc2)c1N (configuration not stated) | > 79 µM (inactive) |
| CCCCOc1ccc(C(=O)N/C(=C\c2ccc(OC)cc2)C(=O)OCc2ccco2)cc1 | > 79 µM (inactive) |
| Cc1c(O)ccc2c(-c3ccccc3)cc(=O)oc12 | 24.5 µM |
| COC(=O)c1cc(NC(=O)c2cc3ccccc3o2)cc(C(=O)OC)c1 | 20.5 µM |
| O=C(N/N=C/c1ccccn1)c1cc(C2CC2)nc2ccccc12 | > 79 µM (inactive) |
| CCCCn1nc(NC(=O)c2cccs2)c2cc3ccccc3nc21 | 18.2 µM |
| CCOC(=O)c1ccc(-c2ccc3ncnc(NCc4csc(C)n4)c3c2)o1 | > 79 µM (inactive) |
| COc1ccc(-c2nnc3sc(-c4ccco4)nn23)cc1OC | > 79 µM (inactive) |
| CC(C)(C)OC(=O)NCCCCCNC(=O)c1[nH]cnc1C(=O)Nc1cc(Br)ccc1F | > 79 µM (inactive) |
| COc1cc(-c2cc3nc(NCCOc4ccccc4)ccn3n2)cc(OC)c1OC | 13.9 µM |
| Nc1cc2[nH]c(=O)c3ccccc3c2cc1Br | > 79 µM (inactive) |
| Cc1ccccc1NP(=O)(Oc1ccccc1F)Oc1ccccc1F | 24.8 µM |
| CC1CCN(CCCNC(=O)c2n[nH]c(=O)c3ccccc23)CC1 | > 79 µM (inactive) |
| COc1cc(OC)c2ccc(=O)oc2c1C(CC(=O)N1CCN(c2ccccc2)CC1)c1ccc2c(c1)OCO2 (configuration not stated) | > 79 µM (inactive) |
| Cc1ccc(OCC(=O)Nc2nc(-c3ccccn3)cs2)c(C)c1 | 16.4 µM |
| O=C(Nc1cccc(N=Cc2cc(Cl)cc(Br)c2O)c1)c1ccco1 | 26.5 µM |
| C[C@@H](OC(=O)c1[nH]cnc1C(=O)NCc1ccc(CNC(=O)OC(C)(C)C)cc1)c1ccccc1 | > 79 µM (inactive) |
| COc1cc(/C=N\NC(=O)c2cccnc2)ccc1OC(=O)c1ccccc1Cl | > 79 µM (inactive) |
| COc1cccc(Nc2nc3ccccc3n3nnnc23)c1 | 14.6 µM |
| CC(C)[C@H](NC(=O)c1ccccc1Cl)C(=O)Nc1nc(-c2ccccn2)cs1 | > 79 µM (inactive) |

| Compound | IC50 |
| --- | --- |
| c1ccc(-c2cn3c(n2)CCc2ccc4cccnc4c2-3)cc1 | > 79 µM (inactive) |
| CC1CCCC(C)N1C(=O)CSc1nc2ccccc2c(=O)[nH]1 (configuration not stated) | > 79 µM (inactive) |
| CCCC(=O)Nc1cc(C)c2c(=O)oc3ccccc3c2n1 | > 79 µM (inactive) |
| CCCCCn1c(=O)c(C(=O)NCc2ccccn2)c(O)c2ccccc21 | 7.77 µM |
| COc1ccc(/C=N/NC(=O)c2sccc2OCc2ccc(F)cc2)cc1OC | 15.4 µM |
| Cc1ccc(C)c(S(=O)(=O)N2CCN(C(=O)CCc3nc4ccccc4c(=O)[nH]3)CC2)c1 | > 79 µM (inactive) |
| Cc1cc(NC(=O)C2CCCCC2)nc2c1c(=O)oc1ccccc12 | 15.3 µM |
| O=C(Nc1nc2ccccc2n1Cc1ccccc1)c1ccco1 | 14.7 µM |
| COc1ccc(N(CC(=O)Nc2cccc(C(C)=O)c2)S(=O)(=O)c2ccc(NC(C)=O)cc2)cc1 | 10.7 µM |
| Cc1cnc(C=O)c2cccc([N+](=O)[O-])c12 | 44.6 µM (inactive) |
| N#C/C(=C\c1ccc(-c2cccc([N+](=O)[O-])c2)o1)C(=O)NCCN1CCOCC1 | > 79 µM (inactive) |
| CCN(CC)S(=O)(=O)c1ccc(Nc2nc3ccccc3n3nnnc23)cc1 | > 79 µM (inactive) |
| COc1ccc2c(c1OC)C(=O)N1c3ccccc3C(=O)N(c3ccccc3)C21 (configuration not stated) | > 79 µM (inactive) |
| COc1ccc(NC(=O)N(CCCN(C)C)Cc2cc3cc(OC)ccc3[nH]c2=O)cc1 | > 79 µM (inactive) |
| NC(=O)c1c(NC(=O)Cn2nc(C(=O)O)c3ccccc3c2=O)sc2c1CCC2 | > 79 µM (inactive) |
| O=C(Oc1ccc2c(-c3ccccc3)cc(=O)oc2c1)C1CCCCC1 | 32.9 µM (inactive) |
| COc1ccc(N2CC(C(=O)NCc3n[nH]c(=O)c4ccccc34)CC2=O)cc1 (configuration not stated) | > 79 µM (inactive) |
| Cc1cccc(-n2c(SCc3cc(=O)n4ccsc4n3)nc3ccccc3c2=O)c1 | 14 µM |
| CN1CCC(N(C)C(=O)CCc2nc3ccccc3c(=O)[nH]2)CC1 | > 79 µM (inactive) |
| COc1cc(C(=O)Nc2ccc(NC(=O)c3cccc(Cl)c3)nc2)cc(OC)c1OC | 13.8 µM |
| Cc1nc(N2CCN(S(=O)(=O)c3cccc4nonc34)CC2)c2c3c(sc2n1)CCCC3 | > 79 µM (inactive) |
| COc1cccc(/C=N/Nc2ncnc3scc(-c4ccccc4)c23)c1OC | > 79 µM (inactive) |
| CCN(CC(=O)Nc1c(F)cccc1F)C(=O)Cn1[nH]c(=O)c2ccccc2c1=O | > 79 µM (inactive) |
